Data published in ChEMBL document CHEMBL1201862, “PubChem BioAssay data set” (2004).
Activity calls are given as the source filed them.

What was measured:
[1] = biological target: Dual specificity tyrosine-phosphorylation-regulated kinase 1A (Rattus norvegicus, UniProt Q63470); type: biochemical, Homo sapiens
[2] = biological target: 26S proteasome non-ATPase regulatory subunit 14 (Homo sapiens, UniProt O00487); test: inhibition of proteasome subunit RPN11 – biochemical, fluorescence polarization, uHTS hits, confirmation (AID 602368); type: functional
[3] = biological target: 72 kDa type IV collagenase (Homo sapiens, UniProt P08253); test: Dose Response validation of uHTS RPN11 inhibitor hits using a MMP-2 Fluorescence assay.; type: functional
Prothrombin = Prothrombin (Bos taurus, UniProt P00735); test: thrombin inhibition, dose response, biochemical, fluorescence polarization, uHTS hits (AID 602369); type: functional
Cytochrome P450 3A4 = Cytochrome P450 3A4 (Homo sapiens, UniProt P08684);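 note: CYP3A4 tested as one member of a cytochrome P450 panel screen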
Cytochrome P450 3A4, sequence (P08684 whole entry): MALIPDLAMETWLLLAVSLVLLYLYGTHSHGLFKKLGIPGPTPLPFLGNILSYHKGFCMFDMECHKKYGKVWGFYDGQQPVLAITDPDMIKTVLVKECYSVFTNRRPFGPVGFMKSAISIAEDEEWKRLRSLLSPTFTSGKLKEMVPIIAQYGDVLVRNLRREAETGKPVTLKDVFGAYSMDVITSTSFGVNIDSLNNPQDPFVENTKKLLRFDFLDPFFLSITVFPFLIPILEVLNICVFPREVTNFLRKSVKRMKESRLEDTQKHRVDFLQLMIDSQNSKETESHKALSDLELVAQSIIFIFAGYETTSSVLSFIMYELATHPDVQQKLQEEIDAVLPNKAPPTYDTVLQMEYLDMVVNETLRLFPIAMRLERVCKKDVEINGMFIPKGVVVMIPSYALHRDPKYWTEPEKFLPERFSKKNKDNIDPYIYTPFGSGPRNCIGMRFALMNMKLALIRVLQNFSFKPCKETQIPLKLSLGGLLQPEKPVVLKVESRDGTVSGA

HeLa = test: HeLa cell cytotoxicity, dose response, cytotoxicity control, 24 h, cherry-picked samples (AID 504726); type: functional, cell-based; conditions: Homo sapiens;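 note: potency for cytotoxicity as loss of luminescence signal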
[4] = biological target: T1, Delta-type opioid receptor (Homo sapiens, UniProt P41143); test: HTS Image-Based Screen for Antagonists of the DOR Receptor. [Related pubchem assays (depositor defined):AID1777, AID1785, AID1786, AID2133]; type: functional
T1 sequence (P41143 whole entry): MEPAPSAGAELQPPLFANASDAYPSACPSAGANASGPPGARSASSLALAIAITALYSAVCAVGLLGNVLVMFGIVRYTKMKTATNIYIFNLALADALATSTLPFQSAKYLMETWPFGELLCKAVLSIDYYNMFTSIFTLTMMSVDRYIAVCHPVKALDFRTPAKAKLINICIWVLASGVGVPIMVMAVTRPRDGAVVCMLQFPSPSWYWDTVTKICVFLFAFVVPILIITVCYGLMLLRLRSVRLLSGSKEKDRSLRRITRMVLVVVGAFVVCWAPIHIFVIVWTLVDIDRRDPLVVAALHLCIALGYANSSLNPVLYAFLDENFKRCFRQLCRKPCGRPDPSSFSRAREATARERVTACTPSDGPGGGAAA

Mu-type opioid receptor = Mu-type opioid receptor (Homo sapiens, UniProt P35372); test: HTS Image-Based Screen for Agonists of the MOR Receptor. [Related pubchem assays (depositor defined):AID1777, AID1785, AID1786, AID2133]; type: functional;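 note: imaging of beta-arrestin GFP recruitment into spots after receptor activation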
[5] = biological target: T1, Delta-type opioid receptor; test: HTS Image-Based Screen for Agonists of the DOR Receptor. [Related pubchem assays (depositor defined):AID1777, AID1786, AID2133]; type: functional
[6] = growth suppression of PTEN-null colon cells, dose response, cell-based, HCT116 PTEN knockout (AID 1047); type: functional;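 note: HCT116 colon tumor cells with PTEN knocked out; cells exposed to compound for 60 hours before readout; potency for loss of cell viability measured by luminescence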
[7] = biological target: T2, Kappa-type opioid receptor (Homo sapiens, UniProt P41145); type: functional
T2 sequence (P41145 whole entry): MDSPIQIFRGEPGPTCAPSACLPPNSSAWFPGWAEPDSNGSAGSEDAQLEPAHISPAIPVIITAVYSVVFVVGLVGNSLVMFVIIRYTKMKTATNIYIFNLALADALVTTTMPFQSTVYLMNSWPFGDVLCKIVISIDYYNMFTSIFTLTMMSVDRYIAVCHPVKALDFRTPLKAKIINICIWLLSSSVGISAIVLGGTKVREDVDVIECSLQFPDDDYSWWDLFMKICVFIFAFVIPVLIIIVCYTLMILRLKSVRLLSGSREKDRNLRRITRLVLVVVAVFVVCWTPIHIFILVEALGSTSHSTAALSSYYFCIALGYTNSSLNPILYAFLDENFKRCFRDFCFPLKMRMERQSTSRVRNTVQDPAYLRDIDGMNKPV

Beta-galactosidase = Beta-galactosidase (Escherichia coli, UniProt Q8VNN2); type: functional
[8] = growth suppression of beta-catenin-knockout colon cells, dose response, cell-based, HCT116, human colon tumor (AID 1045); type: functional;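 note: HCT116 colon tumor cells with beta catenin knocked out; cells exposed to compound for 60 hours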
[9] = biological target: T2, Kappa-type opioid receptor; type: functional; remark: listed apart in the source
[10] = biological target: T3, Microphthalmia-associated transcription factor (Homo sapiens, UniProt O75030); test: TRPM1 promoter luciferase signal decrease, dose response, MITF inhibitor project, cell-based, SK-MEL-5, cherry-picked, set 3 (AID 493073); type: functional
T3 sequence (O75030 whole entry): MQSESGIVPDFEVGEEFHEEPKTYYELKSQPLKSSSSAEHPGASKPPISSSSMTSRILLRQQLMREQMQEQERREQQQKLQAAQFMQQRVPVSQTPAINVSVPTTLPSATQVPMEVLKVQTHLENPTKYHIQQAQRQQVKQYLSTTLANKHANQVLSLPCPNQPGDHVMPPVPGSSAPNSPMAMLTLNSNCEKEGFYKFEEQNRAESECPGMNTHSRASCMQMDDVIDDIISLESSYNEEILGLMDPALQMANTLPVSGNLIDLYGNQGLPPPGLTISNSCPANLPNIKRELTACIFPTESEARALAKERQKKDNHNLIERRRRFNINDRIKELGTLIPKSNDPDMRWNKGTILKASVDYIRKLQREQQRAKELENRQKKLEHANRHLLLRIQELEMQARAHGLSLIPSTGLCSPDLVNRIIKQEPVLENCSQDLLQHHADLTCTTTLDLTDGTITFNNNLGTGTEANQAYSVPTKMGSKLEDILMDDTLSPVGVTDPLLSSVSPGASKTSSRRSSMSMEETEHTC

Vero = Vero cell cytotoxicity, cytotoxicity control for flavivirus capping enzyme inhibitors (AID 588742); type: functional; conditions: Chlorocebus sabaeus
[11] = Shn3 3'UTR reporter inhibitors, dose response, cell-based, Clone20 osteoblasts, firefly luciferase, cherry-picked (AID 624132); type: functional;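 note: firefly luciferase luminescence from reporter carrying the Shn3 3'UTR in osteoblasts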
[12] = HepG2 cell cytotoxicity, dose response, cytotoxicity control for Shn3 inhibitor project, CellTiter-Glo, cherry-picked (AID 624134); type: functional, cell-based
[13] = control 3'UTR Renilla luciferase suppression, dose response, counter-screen for Shn3 inhibitor project, cell-based, Clone20-Shn3RL, cherry-picked (AID 624133); type: functional
Fatty acid synthase [14] = biological target: T4, Fatty acid synthase (Homo sapiens, UniProt P49327); test: FAS thioesterase domain inhibitors, dose response, biochemical, endpoint fluorescence intensity, uHTS hits (AID 624327); type: functional;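 note: fluorescence from hydrolysis of an O-methyl fluorescein acyl ester substrate by the enzyme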
T4 sequence (P49327 whole entry, the tested form may be a part): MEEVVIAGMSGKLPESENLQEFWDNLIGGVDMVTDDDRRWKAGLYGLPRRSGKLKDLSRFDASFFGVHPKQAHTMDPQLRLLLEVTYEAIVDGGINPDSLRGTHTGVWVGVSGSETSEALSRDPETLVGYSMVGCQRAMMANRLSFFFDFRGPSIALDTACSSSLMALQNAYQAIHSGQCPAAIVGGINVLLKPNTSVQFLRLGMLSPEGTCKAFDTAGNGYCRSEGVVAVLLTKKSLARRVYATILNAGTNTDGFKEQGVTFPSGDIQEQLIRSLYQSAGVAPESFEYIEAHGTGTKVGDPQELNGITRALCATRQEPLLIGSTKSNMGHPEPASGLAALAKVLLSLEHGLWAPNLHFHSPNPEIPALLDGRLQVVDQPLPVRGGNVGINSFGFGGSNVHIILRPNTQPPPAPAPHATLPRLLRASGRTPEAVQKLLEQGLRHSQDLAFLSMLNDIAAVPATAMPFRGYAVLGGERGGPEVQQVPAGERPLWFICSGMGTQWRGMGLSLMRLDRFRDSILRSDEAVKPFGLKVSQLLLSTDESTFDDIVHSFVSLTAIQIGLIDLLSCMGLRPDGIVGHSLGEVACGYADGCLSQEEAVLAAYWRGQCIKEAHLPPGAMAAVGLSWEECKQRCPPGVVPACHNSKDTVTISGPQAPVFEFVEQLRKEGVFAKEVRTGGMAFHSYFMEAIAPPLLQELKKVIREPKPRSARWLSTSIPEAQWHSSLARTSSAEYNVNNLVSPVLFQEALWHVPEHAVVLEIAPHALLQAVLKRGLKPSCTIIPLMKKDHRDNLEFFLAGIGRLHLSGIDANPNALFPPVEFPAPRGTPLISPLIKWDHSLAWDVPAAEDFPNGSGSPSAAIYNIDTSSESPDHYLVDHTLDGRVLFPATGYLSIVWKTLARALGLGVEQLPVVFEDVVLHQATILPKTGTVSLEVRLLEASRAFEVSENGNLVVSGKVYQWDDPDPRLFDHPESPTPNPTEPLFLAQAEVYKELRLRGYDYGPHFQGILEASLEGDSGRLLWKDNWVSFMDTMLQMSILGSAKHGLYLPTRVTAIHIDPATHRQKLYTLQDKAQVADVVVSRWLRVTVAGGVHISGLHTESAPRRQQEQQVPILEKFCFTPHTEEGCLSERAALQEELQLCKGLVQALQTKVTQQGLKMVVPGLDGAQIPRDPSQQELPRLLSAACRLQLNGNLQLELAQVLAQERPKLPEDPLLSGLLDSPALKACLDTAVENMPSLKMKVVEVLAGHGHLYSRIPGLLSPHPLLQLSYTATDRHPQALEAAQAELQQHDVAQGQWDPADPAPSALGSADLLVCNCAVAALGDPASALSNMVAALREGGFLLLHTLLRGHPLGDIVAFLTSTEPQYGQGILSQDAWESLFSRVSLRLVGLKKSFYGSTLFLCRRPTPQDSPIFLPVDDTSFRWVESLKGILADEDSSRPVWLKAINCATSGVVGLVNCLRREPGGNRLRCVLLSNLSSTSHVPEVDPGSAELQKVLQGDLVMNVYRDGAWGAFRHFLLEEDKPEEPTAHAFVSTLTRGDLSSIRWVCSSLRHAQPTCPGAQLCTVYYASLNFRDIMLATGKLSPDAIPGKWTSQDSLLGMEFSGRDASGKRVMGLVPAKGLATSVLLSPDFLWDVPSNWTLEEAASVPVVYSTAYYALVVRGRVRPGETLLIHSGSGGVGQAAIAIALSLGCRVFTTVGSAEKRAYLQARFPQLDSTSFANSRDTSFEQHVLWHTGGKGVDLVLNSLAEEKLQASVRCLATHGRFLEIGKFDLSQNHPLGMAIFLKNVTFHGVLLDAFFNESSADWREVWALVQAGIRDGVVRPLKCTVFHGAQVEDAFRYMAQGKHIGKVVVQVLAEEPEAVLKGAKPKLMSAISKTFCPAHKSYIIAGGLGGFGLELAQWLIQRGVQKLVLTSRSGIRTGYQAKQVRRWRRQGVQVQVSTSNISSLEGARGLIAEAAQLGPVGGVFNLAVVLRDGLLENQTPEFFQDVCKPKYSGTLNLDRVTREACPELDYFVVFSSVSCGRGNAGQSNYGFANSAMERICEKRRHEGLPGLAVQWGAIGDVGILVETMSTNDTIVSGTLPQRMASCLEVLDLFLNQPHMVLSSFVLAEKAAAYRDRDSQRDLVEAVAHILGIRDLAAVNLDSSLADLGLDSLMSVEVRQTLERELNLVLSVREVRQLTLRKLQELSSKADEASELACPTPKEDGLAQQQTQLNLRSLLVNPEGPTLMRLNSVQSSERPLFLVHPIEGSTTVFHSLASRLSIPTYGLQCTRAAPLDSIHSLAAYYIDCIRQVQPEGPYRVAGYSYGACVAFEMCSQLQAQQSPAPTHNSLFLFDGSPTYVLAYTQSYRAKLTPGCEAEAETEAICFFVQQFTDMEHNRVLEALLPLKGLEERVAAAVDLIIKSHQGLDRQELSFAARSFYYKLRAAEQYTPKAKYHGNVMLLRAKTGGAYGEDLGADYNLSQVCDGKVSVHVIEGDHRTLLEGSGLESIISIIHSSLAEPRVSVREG

Fatty acid synthase [15] = biological target: T4, Fatty acid synthase; test: FAS thioesterase domain inhibitors, dose response, biochemical, kinetic fluorescence intensity (AID 624326); type: functional;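 note: rate of fluorescence rise from hydrolysis of a fluorogenic O-methyl fluorescein ester substrate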
[16] = THP-1 cell cytotoxicity, dose response, cytotoxicity control for Vif-APOBEC3G degradation inhibitor project, THP-1 cells (AID 1117359); type: functional; conditions: Human immunodeficiency virus 1, THP-1
Cytochrome P450 2C9 = Cytochrome P450 2C9 (Homo sapiens, UniProt P11712)
Cytochrome P450 2C9, sequence (P11712 whole entry): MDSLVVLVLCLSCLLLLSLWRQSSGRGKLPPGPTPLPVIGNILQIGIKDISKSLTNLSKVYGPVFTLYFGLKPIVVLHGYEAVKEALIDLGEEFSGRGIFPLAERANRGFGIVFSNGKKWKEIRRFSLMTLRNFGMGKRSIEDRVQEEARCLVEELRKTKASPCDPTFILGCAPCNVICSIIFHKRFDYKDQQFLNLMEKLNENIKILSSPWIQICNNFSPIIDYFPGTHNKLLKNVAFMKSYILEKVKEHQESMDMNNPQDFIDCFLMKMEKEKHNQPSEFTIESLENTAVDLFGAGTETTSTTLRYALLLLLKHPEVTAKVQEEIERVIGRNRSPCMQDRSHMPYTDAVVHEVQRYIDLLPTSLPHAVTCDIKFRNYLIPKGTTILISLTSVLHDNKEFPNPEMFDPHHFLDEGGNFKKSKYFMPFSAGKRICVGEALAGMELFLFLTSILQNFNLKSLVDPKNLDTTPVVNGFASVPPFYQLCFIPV

[17] = biological target: Peroxisome proliferator-activated receptor gamma/Nuclear receptor coactivator 2 (Homo sapiens, UniProt P37231); type: functional;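 note: agonist potency for raising coactivator recruitment to the receptor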
[18] = biological target: Peroxisome proliferator-activated receptor gamma/Nuclear receptor coactivator 1 (Homo sapiens, UniProt P37231); type: functional;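 note: agonist potency as compounds enhance coactivator SRC-1 recruitment to PPARgamma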
[19] = biological target: Peroxisome proliferator-activated receptor gamma/Nuclear receptor coactivator 3 (Homo sapiens, UniProt P37231); type: functional;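 note: agonist potency for raising coactivator recruitment to the receptor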
Caspase-6 = biological target: T5, Caspase-6 (Homo sapiens, UniProt P55212); test: human caspase-6 inhibitors, dose response, biochemical, VEID-R110 fluorescence, cherry-pick (AID 720632)
T5 sequence (P55212 whole entry): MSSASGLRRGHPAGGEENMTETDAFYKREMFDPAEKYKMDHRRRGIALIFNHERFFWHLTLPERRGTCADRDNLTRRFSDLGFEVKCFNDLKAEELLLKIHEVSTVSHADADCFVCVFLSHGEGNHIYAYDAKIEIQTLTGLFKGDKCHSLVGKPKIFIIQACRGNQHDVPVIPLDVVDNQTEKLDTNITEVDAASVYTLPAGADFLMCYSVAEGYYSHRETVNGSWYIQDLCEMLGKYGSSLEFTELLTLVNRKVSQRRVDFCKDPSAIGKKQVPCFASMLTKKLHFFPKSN

[20] = NIH-3T3 fibroblast cytotoxicity, dose response, cytotoxicity control, cell-based, fluorescence, Alamar Blue, secondary assay (AID 2327); type: functional;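 note: NIH-3T3 mouse fibroblasts cultured with fluconazole at 8 µg/mL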
[21] = C. albicans growth with fluconazole, confirmation, fluorescence, retest (AID 2467); type: functional, cell-based
[22] = biological target: T6, Serine/threonine-protein phosphatase (Candida dubliniensis (strain CD36 / CBS 7987 / NCPF 3949 / NRRLY-17841) (Yeast), UniProt B9W6M3); test: calcineurin pathway inhibitors in yeast reporter, dose response, S. cerevisiae, CDRE-lacZ, luminescence, secondary (AID 2388); type: functional, cell-based;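 note: yeast reporter cells carrying a calcineurin-responsive lacZ construct stimulated with calcium chloride; luminescent beta-galactosidase reporter signal in whole cells rather than isolated phosphatase activity; potency for inhibition where a drop in reporter signal means calcineurin blockade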
T6 sequence (B9W6M3 whole entry): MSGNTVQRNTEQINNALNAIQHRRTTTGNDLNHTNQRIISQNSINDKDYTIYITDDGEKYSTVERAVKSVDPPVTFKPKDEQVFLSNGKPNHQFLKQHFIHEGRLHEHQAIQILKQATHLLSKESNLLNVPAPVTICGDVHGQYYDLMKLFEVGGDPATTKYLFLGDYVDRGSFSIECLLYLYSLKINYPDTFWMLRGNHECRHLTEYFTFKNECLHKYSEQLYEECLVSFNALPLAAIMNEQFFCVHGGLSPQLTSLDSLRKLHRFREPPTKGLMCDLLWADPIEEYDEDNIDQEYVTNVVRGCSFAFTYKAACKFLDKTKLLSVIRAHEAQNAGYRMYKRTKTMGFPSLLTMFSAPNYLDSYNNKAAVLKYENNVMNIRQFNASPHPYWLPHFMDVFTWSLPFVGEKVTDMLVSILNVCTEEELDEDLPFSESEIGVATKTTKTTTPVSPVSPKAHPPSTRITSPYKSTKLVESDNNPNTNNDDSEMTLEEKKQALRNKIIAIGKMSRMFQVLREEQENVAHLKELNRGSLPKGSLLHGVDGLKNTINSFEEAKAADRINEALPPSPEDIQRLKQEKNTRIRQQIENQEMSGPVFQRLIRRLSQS

[23] = biological target: ATP-dependent molecular chaperone HSP82 (Candida albicans (strain WO-1) (Yeast), UniProt C4YTQ8); test: loss of DOC-induced GRE-beta-galactosidase reporter signal, dose response, Hsp90 inhibitor project, S. cerevisiae, luminescence (AID 2400); type: functional, cell-based;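 note: beta-galactosidase luminescence from glucocorticoid response element reporter as proxy for Hsp90 function; inhibitor potency where signal loss means Hsp90 inhibition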
ATP-dependent molecular chaperone HSP82, sequence (C4YTQ8 whole entry): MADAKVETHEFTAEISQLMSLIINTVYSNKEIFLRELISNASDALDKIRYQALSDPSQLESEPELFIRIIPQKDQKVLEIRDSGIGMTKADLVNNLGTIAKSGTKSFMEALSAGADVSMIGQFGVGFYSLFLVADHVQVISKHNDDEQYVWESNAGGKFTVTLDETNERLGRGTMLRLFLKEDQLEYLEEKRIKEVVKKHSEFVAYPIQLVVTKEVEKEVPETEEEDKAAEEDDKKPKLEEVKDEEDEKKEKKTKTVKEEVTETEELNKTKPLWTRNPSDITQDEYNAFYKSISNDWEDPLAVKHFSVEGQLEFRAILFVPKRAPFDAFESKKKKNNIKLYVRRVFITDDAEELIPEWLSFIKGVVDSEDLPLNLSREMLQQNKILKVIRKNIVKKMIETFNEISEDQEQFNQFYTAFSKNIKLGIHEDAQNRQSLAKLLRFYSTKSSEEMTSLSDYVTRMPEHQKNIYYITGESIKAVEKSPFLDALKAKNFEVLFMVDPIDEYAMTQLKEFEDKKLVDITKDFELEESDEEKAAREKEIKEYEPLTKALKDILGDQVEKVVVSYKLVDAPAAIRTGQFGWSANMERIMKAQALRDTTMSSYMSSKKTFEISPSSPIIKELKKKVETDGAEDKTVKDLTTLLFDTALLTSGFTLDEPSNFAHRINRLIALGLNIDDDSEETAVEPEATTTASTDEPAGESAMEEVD

[24] = inhibitors of intracellular T. cruzi replication, confirmation, NIH3T3 host cells, beta-gal luminescence (AID 2044); type: functional, cell-based;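 note: intracellular parasites grown in NIH/3T3 mouse fibroblasts as host cells; luminescent beta-galactosidase reporter signal from transgenic T. cruzi replicating inside host cells; inhibitors lower the luminescence signal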
[25] = cytotoxicity toward NIH3T3 fibroblasts, dose response, counter-screen, cell-based, ATP luminescence, mouse fibroblasts (AID 2010); type: functional;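 note: cells exposed to compound for about 90 hours before reading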
[26] = THP-1 cell cytotoxicity, dose response, cytotoxicity control for non-replicating M. tuberculosis project (AID 489025); type: functional
cells = type: functional
[27] = biological target: T7, RNA-binding protein pos-1 (Caenorhabditis elegans, UniProt G5EF15); test: inhibitors of POS-1/mex-3 RNA binding, dose response, biochemical, fluorescence polarization (AID 1964);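 note: purified POS-1 fused to maltose binding protein made in E. coli; potency of compounds blocking POS-1 binding to fluorescent RNA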
T7 sequence (G5EF15 whole entry): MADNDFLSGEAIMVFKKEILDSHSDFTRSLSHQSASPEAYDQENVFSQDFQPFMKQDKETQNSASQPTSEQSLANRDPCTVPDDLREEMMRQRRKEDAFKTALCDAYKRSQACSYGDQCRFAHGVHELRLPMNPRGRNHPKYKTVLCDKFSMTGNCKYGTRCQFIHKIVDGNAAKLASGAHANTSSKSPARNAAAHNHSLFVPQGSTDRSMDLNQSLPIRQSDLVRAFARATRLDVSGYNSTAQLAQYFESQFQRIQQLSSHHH

[28] = biological target: T8, Zinc finger protein mex-5 (Caenorhabditis elegans, UniProt Q9XUB2); test: MEX-5/TCR-2 RNA interaction inhibitors, dose response, biochemical, C. elegans, fluorescence polarization (AID 1960)
T8 sequence (Q9XUB2 whole entry): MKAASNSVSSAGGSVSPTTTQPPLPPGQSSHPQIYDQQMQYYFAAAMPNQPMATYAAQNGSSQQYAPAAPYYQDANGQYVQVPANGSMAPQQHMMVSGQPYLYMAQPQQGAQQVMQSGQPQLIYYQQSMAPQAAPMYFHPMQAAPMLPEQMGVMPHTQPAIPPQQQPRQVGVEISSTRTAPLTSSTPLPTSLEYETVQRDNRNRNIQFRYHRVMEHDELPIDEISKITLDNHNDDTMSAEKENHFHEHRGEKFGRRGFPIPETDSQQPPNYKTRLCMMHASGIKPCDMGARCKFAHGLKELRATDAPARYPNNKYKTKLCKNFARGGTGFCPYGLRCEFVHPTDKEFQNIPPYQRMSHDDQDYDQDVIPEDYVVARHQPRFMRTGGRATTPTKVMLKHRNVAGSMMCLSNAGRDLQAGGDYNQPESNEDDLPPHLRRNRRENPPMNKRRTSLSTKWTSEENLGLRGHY

Large T antigen = Large T antigen (Simian virus 40, UniProt P03070); type: functional, Betapolyomavirus macacae;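 note: Confirmatory-stage PubChem screen for compounds that inhibit SV40 T antigen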
[29] = biological target: Glucose-6-phosphate 1-dehydrogenase (Homo sapiens, UniProt P11413); test: human G6PD enzyme inhibitors, dose response, selectivity assay for P. falciparum G6PD inhibitor project, biochemical, fluorescence (AID 504792); type: functional

COc1ccc2c3c([nH]c2c1)C(C)NCC3 (centres undefined)
AC50 [1]: 2.99 µM (active) | IC50 [2]: 17.9 µM (active) | IC50 [3]: > 100 µM (inactive) | IC50 (Prothrombin): 13.7 µM (active)

CC(C)(C)C1CCC(OCC(O)CN2CCN(c3ccccc3)CC2)CC1.Cl (centres undefined)
AC50 (Cytochrome P450 3A4): inconclusive

O=C1c2ccccc2C(=O)C1c1ccccn1
AC50 (HeLa): 139 µM (active) | AC50 [1]: 9.62 µM (active)

CCC(=O)OCCNc1cc(Sc2nc3ccccc3[nH]2)c2nonc2c1[N+](=O)[O-]
IC50 [4]: > 32 µM (inactive) | EC50 (Mu-type opioid receptor): > 32 µM (inactive) | EC50 [5]: > 32 µM (inactive) | EC50 [6]: 6.88 µM (active) | IC50 [7]: 2.56 µM (active) | EC50 (Beta-galactosidase): > 31.5 µM (inactive) | EC50 [8]: 5.01 µM (active) | IC50 [9]: 19.1 µM | AC50 [10]: 9.14 µM (active) | CC50 (Vero): 19 µM (active) | AC50 [11]: 1.09 µM (active) | AC50 [12]: 27.4 µM (active) | AC50 [13]: 8.68 µM (active) | IC50 (Fatty acid synthase [14]): 2.04 µM (active) | IC50 (Fatty acid synthase [15]): 0.845 µM (active) | CC50 [16]: 14.7 µM (active)

CCOC(=O)c1c(C)nc2sc3c(=O)n(-c4ccc(C)cc4)cnc3c2c1-c1ccc(OC)cc1
AC50 (Cytochrome P450 2C9): 0.355 µM (inconclusive) | AC50 (Cytochrome P450 3A4): inconclusive

Oc1ccc(NCc2cccc(OCc3ccc(F)cc3)c2)cc1
EC50 [17]: > 79.4 µM (not active) | EC50 [18]: > 79.4 µM (not active) | EC50 [19]: > 79.4 µM (not active) | CC50 (Vero): > 40 µM (active) | AC50 (Caspase-6): 6.29 µM (active) | CC50 [16]: > 40 µM (active)

O=C(NCc1ccc(F)cc1)C(c1ccccc1)N(CC1CCCO1)C(=O)Cn1nnc2ccccc21 (centres undefined)
EC50 [20]: > 150 µM (inactive) | EC50 [21]: 1.07 µM (active) | EC50 [22]: > 180 µM (inactive) | EC50 [23]: > 150 µM (inactive)

COc1ccccc1OCC(=O)N/N=C/C=C/c1ccc([N+](=O)[O-])o1
EC50 [20]: 51.2 µM (active) | EC50 [21]: 0.654 µM (active) | EC50 [24]: 0.105 µM (active) | EC50 [22]: > 180 µM (inactive) | EC50 [25]: 14.2 µM (active) | CC50 [26]: 23 µM (active) | AC50 [10]: 7.39 µM (active) | IC50 (cells): 2.27 µM (active) | EC50 [23]: > 160 µM (inactive)

COc1cc(-c2cc(=O)c3c(O)c(OC)c(OC)c(O)c3o2)ccc1O [ISOTHYMONIN]
EC50 [27]: 48 µM (active) | EC50 [28]: 7.08 µM (inconclusive) | IC50 (Large T antigen): 6.77 µM (active) | IC50 [29]: > 80 µM (inactive) | AC50 [1]: 0.892 µM (active)
